≈ marks a conversion by molar mass, not a printed value.
Legend:
S. aureus = assay: MIC determination by microbroth dilution; assay type: cell-based, Staphylococcus aureus; settings: Staphylococcus aureus; structure-activity relationship of C218-0546 analogs (Figure S1); read-out: MIC
Method: Minimal inhibitory concentration (MIC) determination. The detection of MIC was performed by the microbroth dilution method with reference to the previously report by Wang et al^2. Briefly, the fresh bacterial suspension was adjusted to a McF standard equivalent of 0.5 (~1.5 × 10^8 CFU/mL) and then 100-fold diluted with MH broth. Fifty microliters of bacterial suspension with equal volume of serially diluted compounds (1-128 µg/mL) were added into a 96-well cell plate (Corning Costar, the United States) and incubated at 37°C for 16-18 h. The bacterial suspension without compounds was used as a negative control. The lowest concentration that inhibited visible bacterial growth was considered as the value of MIC.

Human RBCs = assay: Red blood cell (RBC) lysis assay; assay type: cell-based; settings: 1 h
Method: Red blood cell (RBC) lysis assay. Human RBCs (Hemo Pharmaceutical and Biological Co.) were suspended in 1× PBS and diluted to a final concentration of 4% (vol/vol). The RBCs suspension was then incubated with serially diluted compounds at 37°C for 1h. Then, the supernatant was collected by centrifugation and the absorbance at 570 nm […]) was measured. Triton X-100 (0.1%, vol/vol) and DMSO (1%, vol/vol) were served as positive and negative controls, respectively^16.

FtsH = FtsH (Staphylococcus aureus, UniProt Q2G0R0); assay: Surface plasmon resonance (SPR); assay type: binding, S. aureus ATCC 43300; settings: 25 °C
Method: Surface plasmon resonance (SPR). To detect the affinity between the small molecular compounds and FtsH, SPR analyses were performed on a multiple flow cell Biacore T200 instrument (Cytiva, the United States). Briefly, FtsH (35.5 µg/mL in 10 mM sodium acetate buffer, pH= 4.0) was covalently immobilized on a dextran matrix CM5 sensor chip surface in three different flow cells. The excessive active groups on the dextran matrix were blocked using 1 M ethanolamine at the velocity of 10 μL/min for 15 min. The uncoated reference flow cell on the fourth flow cell was prepared on the dextran matrix treated as described above but without any ligand. 1×PBS (pH 7.4) containing 2 mM KH2PO4, 137 mM NaCl, 10 mM Na2HPO4, 2.7 mM KCl and 5%DMSO was used as the running buffer. In the running buffer, a 2-fold serially diluted of compounds was passed over the ligand at a flow rate of 30 µL/min. The sensorgrams were recorded at 25 °C. The response units at the steady state were fitted to the Langmuir equation to yield the Kd values^35.
Protein synthesis and purification. The primers in this study were designed according to the sequence of S. aureus ATCC 43300 genome published on NCBI. […] Finally, the target protein was detected by SDS-PAGE. […]

[1] = Plasma protein binding rate; assay type: in vitro ADME; settings: human plasma
Method: Plasma protein binding rate calculation. Human plasma was purchased from IPHASE (Beijing, China). C218-0546 or STK848198 was added into human plasma to a final concentration of 0.5, 2 and 5 μg/mL, respectively. Warfarin sodium and PBS was used as positive control and blank control, respectively. The samples were added to the upper side of the dialysis membrane (IPHASE, Beijing, China) and PBS was added to its lower side. After incubation at room temperature for 12h, the concentration of C218-0546 and STK848198 at the both sides were detected by the LC-MS. The plasma protein binding rate (%) was calculated as: (1-Cf/Cp) × 100%. Cf, concentration of free compounds (lower side). Cp, plasma protein binding compounds (upper side).

S. aureus ATCC 43300 [2] = assay: S. aureus-related abscess model; assay type: in vivo, ICR mice; settings: STK848198 combined with AMP, s.c.
Method: S. aureus-related abscess model. Six to seven-week-old female, specific pathogen free outbred ICR mice were anesthetized with 1% sodium pentobarbital (50 mg/kg). The back hair was shaved with an electric razor. A 50 μL of S. aureus ATCC 43300 suspension containing 1× 10^8 CFU/ml cells was subcutaneously injected (s.c.) into the back of the mice. The mice were randomized into four groups (N = 5-6 mice per group): (1) Vehicle group, (2) C218-0546 (30 mg/kg) or STK848198 (30 mg/kg) treatment group, (3) Amikacin (25 mg/kg) treatment group, (4) C218-0546 ([…]) treatment group. Each group was administrated by s.c. after 1h post infection. The mice were sacrificed at 24h post infection, and their lesions were removed and homogenized for viable bacterial cells counting. Meanwhile, the lesions were dislocated and immersed in 4% paraformaldehyde for hematoxylin-eosin (H&E) staining, Giemsa staining and immunohistochemical analysis, respectively^22.

S. aureus ATCC 43300 [3] = assay: Periprosthetic joint infection (PJI) model; assay type: in vivo, ICR mice; settings: i.p.

FtsH, sequence (Q2G0R0 entry or part of it): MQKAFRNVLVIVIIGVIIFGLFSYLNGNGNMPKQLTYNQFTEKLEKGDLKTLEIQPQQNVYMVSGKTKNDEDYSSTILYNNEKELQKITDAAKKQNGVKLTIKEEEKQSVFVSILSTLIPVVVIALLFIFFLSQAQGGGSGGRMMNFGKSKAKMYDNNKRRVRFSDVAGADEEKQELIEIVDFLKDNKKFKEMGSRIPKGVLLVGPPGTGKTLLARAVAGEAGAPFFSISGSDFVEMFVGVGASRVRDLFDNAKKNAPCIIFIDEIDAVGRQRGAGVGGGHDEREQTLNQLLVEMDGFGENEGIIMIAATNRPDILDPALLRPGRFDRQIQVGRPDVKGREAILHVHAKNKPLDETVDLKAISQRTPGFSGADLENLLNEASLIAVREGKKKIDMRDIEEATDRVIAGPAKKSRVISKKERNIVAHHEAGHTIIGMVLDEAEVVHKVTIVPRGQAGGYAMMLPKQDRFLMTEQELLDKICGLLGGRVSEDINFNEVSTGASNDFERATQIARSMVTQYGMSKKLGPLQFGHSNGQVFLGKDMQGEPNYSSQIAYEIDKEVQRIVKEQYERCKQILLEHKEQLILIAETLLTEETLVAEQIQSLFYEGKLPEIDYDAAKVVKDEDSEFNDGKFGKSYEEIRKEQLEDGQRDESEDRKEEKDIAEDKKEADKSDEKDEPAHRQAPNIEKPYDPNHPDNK

Cc1nc2c(-c3ccc(Cl)cc3)cnn2c(O)c1Cc1ccccc1 [STK848198]
MIC (S. aureus): 2 µg/mL (≈ 5.72 µM) | hemolysis activity (Human RBCs): No hemolysis activity | Kd (FtsH): 31 µM | plasma protein binding rate [1]: high | in vivo synergy, viable cell counts in abscess (S. aureus ATCC 43300 [2]): exhibited synergy | bacterial viable cell loads in infected joint (S. aureus ATCC 43300 [3]; day 5, AMP 25 mg/kg combined with STK848198 30 mg/kg): effectively reduce the bacterial viable cell loads | bacterial loads in the joint and its surrounding tissue (S. aureus ATCC 43300 [3]; day 7, alone or in combination): reduce the bacterial loads

Reference: PMC11707430, “Novel antibiotics against Staphylococcus aureus without detectable resistance by targeting proton motive force and FtsH” (MedComm, 2025)
